The source made the active and inactive calls. No cut-off for these calls is given here.
Columns and labels:
[1] = biological target: T1, D(2) dopamine receptor (Homo sapiens, UniProt P14416); test: Displacement of [3H]N-methylspiperone from dopamine D2 receptor (unknown origin) at 10 uM relative to control
[2] = biological target: T2, D(1A) dopamine receptor (Homo sapiens, UniProt P21728); test: Displacement of [3H]SCH23390 from dopamine D1 receptor (unknown origin)
[3] = biological target: D(1B) dopamine receptor (Homo sapiens, UniProt P21918); test: Displacement of [3H]SCH23390 from dopamine D5 receptor (unknown origin)
Chain of D(1B) dopamine receptor (P21918 whole entry): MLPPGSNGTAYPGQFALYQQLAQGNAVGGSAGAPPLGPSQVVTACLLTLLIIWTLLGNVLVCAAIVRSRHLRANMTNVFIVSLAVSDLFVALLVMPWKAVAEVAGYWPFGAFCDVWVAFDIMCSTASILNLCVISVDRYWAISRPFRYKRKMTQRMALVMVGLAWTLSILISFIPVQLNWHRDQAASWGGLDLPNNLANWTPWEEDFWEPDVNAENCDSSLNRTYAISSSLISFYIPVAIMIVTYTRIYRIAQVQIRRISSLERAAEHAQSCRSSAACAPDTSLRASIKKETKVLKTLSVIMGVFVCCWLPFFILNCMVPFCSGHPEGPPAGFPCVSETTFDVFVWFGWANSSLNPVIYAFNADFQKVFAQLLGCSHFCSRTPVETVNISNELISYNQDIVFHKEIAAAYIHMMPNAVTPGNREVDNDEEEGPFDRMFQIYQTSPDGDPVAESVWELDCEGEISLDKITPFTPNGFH

[4] = biological target: T1, D(2) dopamine receptor; test: Displacement of [3H]N-methylspiperone from dopamine D2 receptor (unknown origin)
[5] = organism: Homo sapiens; test: Selectivity index, ratio of Ki for displacement of [3H]SCH23390 from dopamine D5 receptor (unknown origin) to Ki for displacement of [3H]SCH23390 from dopamine D1 receptor (unknown origin)
[6] = biological target: T2, D(1A) dopamine receptor; test: Agonist activity at human dopamine D1 receptor expressed in CHO-K1 cells by cAMP Hunter assay; assay type: functional, cell-based
[7] = biological target: T2, D(1A) dopamine receptor; test: Antagonist activity at human dopamine D1 receptor expressed in CHO-K1 cells by cAMP Hunter assay; assay type: functional, cell-based

T1 sequence (P14416 whole entry): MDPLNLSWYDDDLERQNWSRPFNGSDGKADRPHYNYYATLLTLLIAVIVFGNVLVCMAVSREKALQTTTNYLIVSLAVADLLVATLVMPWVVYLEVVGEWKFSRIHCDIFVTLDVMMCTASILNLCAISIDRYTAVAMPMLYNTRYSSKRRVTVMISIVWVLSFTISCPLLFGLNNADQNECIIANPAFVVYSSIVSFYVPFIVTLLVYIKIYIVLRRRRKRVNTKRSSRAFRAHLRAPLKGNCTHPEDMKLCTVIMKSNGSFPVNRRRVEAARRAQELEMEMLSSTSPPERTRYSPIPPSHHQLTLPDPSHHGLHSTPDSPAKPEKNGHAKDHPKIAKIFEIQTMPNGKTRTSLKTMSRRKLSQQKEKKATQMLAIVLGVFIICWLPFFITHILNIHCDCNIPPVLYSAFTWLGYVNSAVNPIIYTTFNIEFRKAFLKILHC
T2 sequence (P21728 whole entry): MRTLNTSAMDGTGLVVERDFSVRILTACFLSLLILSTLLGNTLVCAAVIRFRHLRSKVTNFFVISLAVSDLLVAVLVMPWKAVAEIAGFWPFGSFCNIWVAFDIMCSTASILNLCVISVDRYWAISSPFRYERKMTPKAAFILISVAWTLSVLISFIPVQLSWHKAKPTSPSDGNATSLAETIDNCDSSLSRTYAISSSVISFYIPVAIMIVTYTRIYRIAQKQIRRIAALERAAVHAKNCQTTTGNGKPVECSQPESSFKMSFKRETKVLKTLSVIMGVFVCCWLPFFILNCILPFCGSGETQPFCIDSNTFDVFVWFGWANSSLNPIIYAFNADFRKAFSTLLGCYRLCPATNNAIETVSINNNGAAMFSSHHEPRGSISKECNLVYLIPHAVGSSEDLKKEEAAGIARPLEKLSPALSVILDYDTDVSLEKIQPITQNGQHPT

| Compound | inhibition [1] | Ki [2] | Ki [3] | Ki [4] | Ratio Ki [5] | Activity [6] | IC50 [7] |
| --- | --- | --- | --- | --- | --- | --- | --- |
| COc1cc2c(cc1O)C(c1c(Cl)cccc1Cl)CN(C)CC2 (stereo not drawn) | < 50% | 145 nM | 49.1 nM | – | – | – | – |
| C=CCN1CCc2cc(OC)c(O)cc2C(c2c(Cl)cccc2Cl)C1 (stereo not drawn) | – | 1040 nM | 479 nM | 1510 nM | – | – | – |
| C=CCN1CCc2cc(O)c(O)cc2C(c2ccccc2Br)C1 (stereo not drawn) | < 50% | 133 nM | 442 nM | – | 3 to 4 | – | – |
| COc1cc2c(cc1O)C(c1ccccc1)CNCC2 (stereo not drawn) | < 50% | 126 nM | 310 nM | – | < 3 | – | – |
| COc1cc2c(cc1O)C(c1ccccc1Br)CN(C)CC2 (stereo not drawn) | < 50% | 16 nM | 47 nM | – | 4 | – | – |
| COc1cc2c(cc1O)C(c1ccccc1Cl)CNCC2 (stereo not drawn) | < 50% | 147 nM | 483 nM | – | < 3 | – | – |
| COc1cc2c(cc1O)C(c1c(Cl)cccc1Cl)CNCC2 (stereo not drawn) | < 50% | 76.1 nM | 25.4 nM | – | – | – | – |

Continued, values first:

| inhibition [1] | Ki [2] | Ki [3] | Ki [4] | Ratio Ki [5] | Activity [6] | IC50 [7] | Compound |
| --- | --- | --- | --- | --- | --- | --- | --- |
| < 50% | 41 nM | 501 nM | – | – | – | – | C=CCN1CCc2cc(OC)c(O)cc2C(c2ccccc2Br)C1 (stereo not drawn) |
| < 50% | 72 nM | 82 nM | – | < 3 | – | – | COc1cc2c(cc1O)C(c1ccccc1Br)CNCC2 (stereo not drawn) |
| < 50% | 48.3 nM | 264 nM | – | – | – | – | C=CCN1CCc2cc(OC)c(O)cc2C(c2ccccc2Cl)C1 (stereo not drawn) |
| < 50% | 14 nM | 46.4 nM | – | 3 | inactive | 9.4 nM | COc1cc2c(cc1O)C(c1ccccc1Cl)CN(C)CC2 (stereo not drawn) |
| < 50% | 59.4 nM | 223 nM | – | 3 to 4 | – | – | CN1CCc2cc(O)c(O)cc2C(c2ccccc2Br)C1 (stereo not drawn) |
| < 50% | 26 nM | 67 nM | – | – | – | – | Oc1cc2c(cc1O)C(c1ccccc1Br)CNCC2 (stereo not drawn) |
